Source: US20100255530A1, “BACTERIA DETECTION AND/OR IDENTIFICATION MEDIUM” (BIOMERIEUX, priority 2007, published 2010)

System: Citrobacter freundii 009
Assay: Impact of cellobiose on colony coloration, Citrobacter freundii 009
Format: cell-based
Settings: cellobiose 0.5 g/l in medium combining the glucuronide and galactoside substrates
Excerpt: The coloration of these colonies is noted.

Question: For O=C[C@H](O)[C@@H](O)[C@H](O[C@@H]1O[C@H](CO)[C@@H](O)[C@H](O)[C@H]1O)[C@H](O)CO [cellobiose], which “distinction of the Citrobacter 009 strain from the E. coli strains” value is on record?
Answer: makes it possible to distinguish the Citrobacter 009 strain more clearly from the E. coli strains
